Test results as given in patent US20080214606A1, “Methods for the Identification and Use of Compounds Suitable for the Treatment of Drug Resistant Cancer Cells” (The Government of the United States of America as …, priority 2004, published 2008).

Legend:
ABCA3 = target: T1, ABCA3 (Homo sapiens, UniProt Q99758); assay: Correlation of ABCA3 expression with drug sensitivity across the NCI-60; format: cell-based; settings: Pearson correlation of ABCA3 expression with sensitivity of the 60 cell lines; 1429 compounds; inverse, p < 0.0001
T1 construct: profiled in 60 diverse cancer cell lines (the NCI-60) using real-time RT-PCR; endogenous in cells; host or cells: NCI-60 human cancer cell lines
T1 sequence (Q99758 whole entry): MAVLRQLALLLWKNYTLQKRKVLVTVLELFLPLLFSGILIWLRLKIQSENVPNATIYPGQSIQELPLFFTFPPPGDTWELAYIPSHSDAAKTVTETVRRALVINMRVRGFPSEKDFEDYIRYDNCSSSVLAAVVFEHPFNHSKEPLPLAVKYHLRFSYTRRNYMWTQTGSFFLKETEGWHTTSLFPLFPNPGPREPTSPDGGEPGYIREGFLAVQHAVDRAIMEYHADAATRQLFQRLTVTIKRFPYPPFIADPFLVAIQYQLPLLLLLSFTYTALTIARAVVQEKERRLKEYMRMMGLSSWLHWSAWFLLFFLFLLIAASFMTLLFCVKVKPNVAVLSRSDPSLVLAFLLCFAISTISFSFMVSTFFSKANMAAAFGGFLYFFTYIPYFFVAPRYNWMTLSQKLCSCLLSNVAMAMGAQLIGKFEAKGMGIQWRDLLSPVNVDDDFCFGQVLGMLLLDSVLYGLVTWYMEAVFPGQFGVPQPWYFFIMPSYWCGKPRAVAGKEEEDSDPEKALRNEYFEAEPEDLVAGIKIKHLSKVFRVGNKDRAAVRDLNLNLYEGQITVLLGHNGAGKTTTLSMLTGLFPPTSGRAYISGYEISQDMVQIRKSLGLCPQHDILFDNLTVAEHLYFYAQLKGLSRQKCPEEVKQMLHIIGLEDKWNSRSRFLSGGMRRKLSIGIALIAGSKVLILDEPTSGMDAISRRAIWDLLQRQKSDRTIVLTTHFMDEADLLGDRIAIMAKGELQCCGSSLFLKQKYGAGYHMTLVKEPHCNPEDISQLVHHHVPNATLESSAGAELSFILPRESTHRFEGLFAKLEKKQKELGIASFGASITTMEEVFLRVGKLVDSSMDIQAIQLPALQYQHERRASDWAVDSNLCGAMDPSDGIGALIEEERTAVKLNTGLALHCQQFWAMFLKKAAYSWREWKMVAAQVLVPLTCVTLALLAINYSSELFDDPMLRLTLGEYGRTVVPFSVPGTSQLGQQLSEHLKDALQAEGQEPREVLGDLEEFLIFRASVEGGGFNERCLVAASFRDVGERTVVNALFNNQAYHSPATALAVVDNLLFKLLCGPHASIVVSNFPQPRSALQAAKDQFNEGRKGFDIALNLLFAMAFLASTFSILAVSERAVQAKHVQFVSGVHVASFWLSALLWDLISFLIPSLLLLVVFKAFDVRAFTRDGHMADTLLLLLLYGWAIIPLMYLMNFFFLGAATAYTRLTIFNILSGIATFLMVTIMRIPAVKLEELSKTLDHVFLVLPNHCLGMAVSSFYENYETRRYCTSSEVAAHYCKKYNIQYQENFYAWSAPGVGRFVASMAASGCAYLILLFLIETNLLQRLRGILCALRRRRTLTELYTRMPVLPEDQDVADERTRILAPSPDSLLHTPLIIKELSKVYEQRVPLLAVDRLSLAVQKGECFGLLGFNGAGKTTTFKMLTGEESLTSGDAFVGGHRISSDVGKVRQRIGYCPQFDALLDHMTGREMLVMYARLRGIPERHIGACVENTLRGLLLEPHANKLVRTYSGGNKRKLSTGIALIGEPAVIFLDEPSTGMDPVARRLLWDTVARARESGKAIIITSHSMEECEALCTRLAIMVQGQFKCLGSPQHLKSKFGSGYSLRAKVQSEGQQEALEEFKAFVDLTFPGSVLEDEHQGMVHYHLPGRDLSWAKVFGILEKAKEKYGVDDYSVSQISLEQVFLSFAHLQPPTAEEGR
Description: (§1) Expression levels are measured by real-time quantitative RT-PCR using the LightCycler RNA Amplification SYBR Green kit and a LightCycler machine (Roche Biochemicals, Indianapolis, Ind.). […] When possible, the amplicons are designed to encompass exon-intron boundaries to avoid amplification of genomic DNA. Since the Syber Green assay detects accumulation of double stranded DNA, primers are selected (from a battery consisting of about 200 primers) that amplified a single product of the correct size.
(§2) RT-PCR is carried out on 150 ng total RNA, in the presence of 250 nM specific primers. Following reverse transcription (20 min at 50° C.), the PCR reaction consists of 45 cycles of denaturation (15 sec at 95° C.), annealing (30 sec at 58° C.), and elongation (30 sec at 72° C.). No-template (water) reaction mixtures are prepared as negative controls.
(§3) During PCR amplification, fluorescence emission is measured and recorded in real time by the LightCycler. Crossing point values are calculated, using the LightCycler software package, by the Fit Points analysis method, with baseline fluorescence set at 1. The SyberGreen assay measures accumulation of double-stranded products, and the appearance of primer dimers limits quantitation at high cycle numbers. The specificity of amplified products is verified by melting-curve analysis and agarose gel electrophoresis (not shown). The raw results are expressed as number of cycles to reach the crossing point. If the desired product is not detected, the corresponding value is adjusted to crossing points indicating no expression. To assess the contribution of experimental artifacts, selected cell lines are assessed in replicate.
(§4) The two are combined to form a joint dataset that includes 1429 compounds.
(§5) To determine quantitatively how well the 47 genes cluster the cell lines by their tissues of origin, a statistical method is employed wherein the kappa statistic is used to indicate how well the observed clusters correspond to the nine tissue-of-origin classifications. […] To control the overall false type 1 error rate, both a step-down procedure (Westfall and Young, 1993, Resampling-Based Multiple Testing: Examples and Methods for p-value Adjustment (New York: Wiley)) and a step-up procedure (Reiner et al., 2003, Bioinformatics 19:368-375) were employed to adjust for multiple testing of all 47 genes simultaneously. In the Benjamini-Hochberg procedure the p-values are computed in the standard way by permutation, assuming that all distributions are exchangeable: the number of values in the permuted data with correlations over a threshold, divided by the number of compounds and by the number of permutations. In this analysis, the False Discovery Rate (q-value) at which each compound would be declared was calculated using the step-up procedure for positively correlated test statistics (again true because all correlations being compared are computed against the same ABC gene): in this procedure the first q-value for the largest correlation is the Bonferroni-corrected p-value for that gene; then further q-values are calculated as qj=max(pj*1429/j, qj-1). This procedure limits the expected proportion of false positives in the list 1, . . . , j to at most qj.

ABCC7 = target: T2, ABCC7 (Homo sapiens, UniProt P13569); assay: Correlation of ABCC7 expression with drug sensitivity across the NCI-60; format: cell-based; settings: Pearson correlation of ABCC7 expression with sensitivity of the 60 cell lines; 1429 compounds; inverse, p < 0.0001
T2 construct: profiled in 60 diverse cancer cell lines (the NCI-60) using real-time RT-PCR; endogenous in cells; host or cells: NCI-60 human cancer cell lines
T2 sequence (P13569 whole entry): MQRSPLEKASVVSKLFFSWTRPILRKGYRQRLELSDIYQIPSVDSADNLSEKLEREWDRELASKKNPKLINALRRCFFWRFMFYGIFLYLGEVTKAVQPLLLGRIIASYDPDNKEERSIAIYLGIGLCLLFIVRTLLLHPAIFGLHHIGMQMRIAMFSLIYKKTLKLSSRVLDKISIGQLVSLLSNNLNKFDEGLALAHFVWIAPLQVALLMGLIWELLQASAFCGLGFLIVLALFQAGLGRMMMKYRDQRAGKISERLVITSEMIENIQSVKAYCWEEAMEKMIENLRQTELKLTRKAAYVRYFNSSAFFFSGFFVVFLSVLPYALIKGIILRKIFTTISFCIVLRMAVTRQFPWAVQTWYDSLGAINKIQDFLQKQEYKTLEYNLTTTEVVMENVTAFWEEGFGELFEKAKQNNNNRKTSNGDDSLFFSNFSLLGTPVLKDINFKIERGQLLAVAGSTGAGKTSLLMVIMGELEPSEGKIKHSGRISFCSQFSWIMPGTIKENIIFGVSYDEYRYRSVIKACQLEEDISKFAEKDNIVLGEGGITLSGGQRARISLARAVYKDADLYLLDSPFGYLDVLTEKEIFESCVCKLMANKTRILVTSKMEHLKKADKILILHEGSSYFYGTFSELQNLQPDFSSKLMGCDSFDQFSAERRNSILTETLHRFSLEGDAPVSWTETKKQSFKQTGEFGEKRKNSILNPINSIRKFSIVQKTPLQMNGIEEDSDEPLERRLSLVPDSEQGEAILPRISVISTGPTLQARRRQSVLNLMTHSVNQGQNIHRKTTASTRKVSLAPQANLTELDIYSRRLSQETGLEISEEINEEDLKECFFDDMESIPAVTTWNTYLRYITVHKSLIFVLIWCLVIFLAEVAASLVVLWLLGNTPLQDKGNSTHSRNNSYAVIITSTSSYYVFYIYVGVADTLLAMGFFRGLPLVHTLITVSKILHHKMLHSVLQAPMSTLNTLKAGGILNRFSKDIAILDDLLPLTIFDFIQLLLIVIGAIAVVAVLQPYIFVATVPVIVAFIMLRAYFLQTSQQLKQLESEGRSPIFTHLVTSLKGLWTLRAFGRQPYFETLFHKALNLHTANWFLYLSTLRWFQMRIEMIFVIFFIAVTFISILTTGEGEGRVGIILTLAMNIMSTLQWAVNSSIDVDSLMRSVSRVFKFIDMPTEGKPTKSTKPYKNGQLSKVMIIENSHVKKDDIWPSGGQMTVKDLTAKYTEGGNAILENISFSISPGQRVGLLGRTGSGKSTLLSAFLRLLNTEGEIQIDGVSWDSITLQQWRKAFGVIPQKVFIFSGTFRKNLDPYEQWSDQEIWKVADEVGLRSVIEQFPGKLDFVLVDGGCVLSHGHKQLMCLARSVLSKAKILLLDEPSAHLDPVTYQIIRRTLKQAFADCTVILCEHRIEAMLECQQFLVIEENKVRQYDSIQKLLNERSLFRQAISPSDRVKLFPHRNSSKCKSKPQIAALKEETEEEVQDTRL
Description: as §1, §2, §3, §4, §5

ABCC3 = target: T3, ABCC3 (Homo sapiens, UniProt O15438); assay: Correlation of ABCC3 expression with drug sensitivity across the NCI-60; format: cell-based; settings: Pearson correlation of ABCC3 expression with sensitivity of the 60 cell lines; 1429 compounds; inverse, p < 0.0001
T3 construct: profiled in 60 diverse cancer cell lines (the NCI-60) using real-time RT-PCR; endogenous in cells; host or cells: NCI-60 human cancer cell lines
T3 sequence (O15438 whole entry): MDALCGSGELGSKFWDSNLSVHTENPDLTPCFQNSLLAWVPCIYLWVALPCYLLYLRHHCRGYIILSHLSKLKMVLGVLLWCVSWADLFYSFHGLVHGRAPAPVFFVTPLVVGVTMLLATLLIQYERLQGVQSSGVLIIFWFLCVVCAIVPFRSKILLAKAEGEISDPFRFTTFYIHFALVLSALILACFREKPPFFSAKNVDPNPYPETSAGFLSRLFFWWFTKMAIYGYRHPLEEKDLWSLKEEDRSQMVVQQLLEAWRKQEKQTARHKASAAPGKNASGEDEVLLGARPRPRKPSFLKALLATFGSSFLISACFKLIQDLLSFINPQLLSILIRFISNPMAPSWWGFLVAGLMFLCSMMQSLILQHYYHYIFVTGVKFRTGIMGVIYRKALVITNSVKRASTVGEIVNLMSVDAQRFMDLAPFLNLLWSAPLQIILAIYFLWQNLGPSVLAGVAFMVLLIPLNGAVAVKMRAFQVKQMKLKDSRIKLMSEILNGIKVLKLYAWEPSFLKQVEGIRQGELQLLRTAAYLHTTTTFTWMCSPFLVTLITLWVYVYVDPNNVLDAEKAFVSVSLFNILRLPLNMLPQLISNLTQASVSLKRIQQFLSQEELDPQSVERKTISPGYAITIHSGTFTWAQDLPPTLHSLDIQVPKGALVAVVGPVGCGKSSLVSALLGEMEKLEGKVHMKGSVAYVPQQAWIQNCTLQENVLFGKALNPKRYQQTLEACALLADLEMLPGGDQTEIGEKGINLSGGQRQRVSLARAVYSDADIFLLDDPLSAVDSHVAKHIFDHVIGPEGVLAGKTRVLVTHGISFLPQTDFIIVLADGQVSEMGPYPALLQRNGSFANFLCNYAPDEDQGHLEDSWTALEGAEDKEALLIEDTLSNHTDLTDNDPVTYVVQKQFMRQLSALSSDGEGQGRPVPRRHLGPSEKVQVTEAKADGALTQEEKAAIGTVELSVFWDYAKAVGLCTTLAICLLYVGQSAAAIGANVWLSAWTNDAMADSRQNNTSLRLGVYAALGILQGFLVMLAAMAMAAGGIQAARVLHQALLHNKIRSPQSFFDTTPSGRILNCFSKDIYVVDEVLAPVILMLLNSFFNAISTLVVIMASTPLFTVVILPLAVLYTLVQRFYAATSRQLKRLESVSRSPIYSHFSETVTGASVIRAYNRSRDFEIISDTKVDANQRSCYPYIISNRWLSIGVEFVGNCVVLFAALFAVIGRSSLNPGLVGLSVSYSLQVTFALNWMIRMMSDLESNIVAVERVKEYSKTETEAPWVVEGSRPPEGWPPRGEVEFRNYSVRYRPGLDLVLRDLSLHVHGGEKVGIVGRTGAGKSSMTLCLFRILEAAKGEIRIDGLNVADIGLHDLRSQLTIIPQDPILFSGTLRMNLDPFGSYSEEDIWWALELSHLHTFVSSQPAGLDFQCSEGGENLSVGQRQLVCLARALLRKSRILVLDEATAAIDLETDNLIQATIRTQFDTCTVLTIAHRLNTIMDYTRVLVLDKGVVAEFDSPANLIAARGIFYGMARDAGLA
Description: as §1, §2, §3, §4, §5

ABCB1 = ABCB1 (Homo sapiens, UniProt P08183); assay: Correlation of ABCB1 expression with drug sensitivity across the NCI-60
How it was run: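 SYBR Green real-time RT-PCR on 150 ng total RNA with 250 nM primers: RT 20 min at 50 °C, then 45 cycles; expression taken as crossing-point cycle number. Correlated with drug sensitivity of 1429 compounds across the cell panel; permutation p-values with step-down and step-up (FDR q-value) multiple-testing correction.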

[1] = test system: KB-V1 cells (over-express MDR1-P-gp) vs parental KB-3-1 cells; assay: MTT assay using the KB-3-1/KB-V1 cell pair; format: cell-based, human
Description: Cell survival is measured by the MTT (3-(4,5-Dimethylthiazol-2-yl)-2,5-diphenyltetrazolium) Assay. Cells are seeded in 100 μl medium at a density of 5000 cells/well in 96 well plates, and serially diluted drug (with or without 2 μM PSC 833) is added the following day in 100 μl medium to give the indicated final concentration. Cells are then incubated for 72 hrs at 37° C. in 5% CO2, and the MTT assay is performed according to the manufacturer's instructions (Molecular Probes, Eugene, Oreg.).
To test whether our approach using the NCI-60 does, in fact, identify new substrates, an MTT assay is used to test all top-scoring compounds that were available from DTP for follow-up experiments. KB-3-1, a human carcinoma cell line, and KB-V1, a multidrug resistant derivative of KB-3-1 that over-expresses MDR1-P-gp (Shen et al., 1986, J. Biol. Chem. 261:7762-7770), are used for the tests. […] This resistance of KB-V-1 cells is invariably reversible by PSC 833. The intrinsic fluorescence of one of the compounds, NSC 634791, allows for the measurement of the effect of MDR1 activity on its export from cells.

## CC[C@]1(O)C[C@@H]2CN(CCc3c([nH]c4ccccc34)[C@@](C(=O)OC)(c3cc4c(cc3OC)N(C)[C@H]3[C@@](O)(C(=O)OC)[C@H](OC(C)=O)[C@]5(CC)C=CCN6CC[C@]43[C@@H]65)C2)C1.O=S(=O)(O)O [NSC 49842]
ABCA3
  Correlation: −0.3678

## CC12CCC(CC1)C(C)(C)O2 [NSC 6171]
ABCC7
  Correlation: −0.4552

## CCN(CC)CC(O)CNc1ccc(NCC2CO2)c2c1C(=O)c1ccccc1C2=O (stereo not shown) [NSC 639366]
ABCC3
  Correlation: −0.5003

## O=C1C=C(N2CCN(c3ccccn3)CC2)C(=O)c2c(O)ccc(O)c21 [NSC 658142]
ABCA3
  Correlation: −0.4017
ABCC3
  Correlation: −0.4982

## COc1cc(C(=O)N[C@H]2CCc3cc(OC)c(OC)c(OC)c3-c3ccc(OC)c(=O)cc32)cc(OC)c1OC [NSC 355256]
ABCA3
  Correlation: −0.3769

## O=[N+]([O-])c1cccc(/C=N/Nc2ccc3ccccc3n2)c1O [NSC 168468]
ABCB1
  Correlation of antiproliferative activity with ABCB1 expression: 0.4839
[1]; MTT assay with 2 μM PSC 833
  Effect of PSC 833 on the heightened sensitivity of KB-V1 cells: completely reversed sensitivity
[1]; MTT assay, 72 hrs
  Sensitivity of KB-V1 cells relative to parental KB-3-1 (potentiation by ABCB1): equivalent to or greater than the potentiation effect observed for NSC 73306

## CC(=O)Oc1c2ccsc2c(OC(C)=O)c2ccsc12 [NSC 695914]
ABCC7
  Correlation: −0.4297

## COc1ccc(O)c2c(=O)c3c(OC)cc4c(c3oc12)[C@@H]1C=CO[C@@H]1O4 [NSC 178249]
ABCC7
  Correlation: −0.5603

## CC1CSC(=S)N1C(=O)N1C(=S)SCC1C (stereo not shown) [NSC 654968]
ABCC7
  Correlation: −0.5519

## Cn1c(=O)nc2n(-c3ccc(Cl)cc3)c3cc(Cl)ccc3nc-2c1=O [NSC 627991]
ABCC3
  Correlation: −0.4741

## O=C(CC(=O)c1ccccc1NC1=Cc2ccccc2C(=O)C1=O)C(=O)NC1=C(Cl)C(=O)c2ccccc2C1=O [NSC 641245]
ABCC3
  Correlation: −0.5702

## COc1ccc(NC(=S)N=Nc2c(O)[nH]c3c(Cl)cc(Cl)cc23)cc1 [NSC 73304]
[1]; MTT assay with 2 μM PSC 833
  Effect of PSC 833 on the heightened sensitivity of KB-V1 cells: completely reverses sensitivity
[1]; MTT assay, 72 hrs
  Sensitivity of KB-V1 cells relative to parental KB-3-1 (potentiation by ABCB1): several-fold more sensitive

## CC(=O)O[C@@]12CO[C@@H]1CC(O)[C@@]1(C)C(=O)[C@H](O)C3=C(C)C(O)C[C@@](O)(C(OC(=O)c4ccccc4)C12)C3(C)C (stereo partly shown) [NSC 656178]
ABCA3
  Correlation: −0.4318

## COc1cc2cc[n+]3c(c2cc1OC)C(=O)c1ccccc1-3 [NSC 627787]
ABCC7
  Correlation: −0.5471

## COc1cc2c(c(OC(C)=O)c1OC(C)=O)-c1ccc(SC)c(=O)cc1C(NC(C)=O)CC2 (stereo not shown) [NSC 374979]
ABCA3
  Correlation: −0.4573

## CCOC(=O)/C(C#N)=C/c1ccc2c(c1)CC1(C2)Cc2cc(CC)c(C(C)O)cc2C1 (stereo not shown) [NSC 670289]
ABCC3
  Correlation: −0.3824

## CC(=O)NC1=CC(=O)c2cc(C)cc(O)c2C1=O [NSC 658450]
ABCC3
  Correlation: −0.5526

## COC(=O)CCC(=O)NC1=C(Nc2ccc(OC)cc2)C(=O)c2ccccc2C1=O [NSC 670766]
ABCC7
  Correlation: −0.4378

## CC(C)(C)c1nc2c(o1)C(=Nc1ccc(F)cc1)c1ccccc1C2=O [NSC 626030]
ABCC7
  Correlation: −0.5025

## Cc1c2ccnc(-c3ccccc3)c2cc2c1[nH]c1ccccc12 [NSC 86715]
ABCB1
  Correlation of antiproliferative activity with ABCB1 expression: 0.5323
ABCC7
  Correlation: −0.5696

## NC(=S)N=Nc1c(O)[nH]c2c(Cl)cc(Cl)cc12 [NSC 73305]
[1]; MTT assay with 2 μM PSC 833
  Effect of PSC 833 on the heightened sensitivity of KB-V1 cells: completely reverses sensitivity
[1]; MTT assay, 72 hrs
  Sensitivity of KB-V1 cells relative to parental KB-3-1 (potentiation by ABCB1): several-fold more sensitive

## CC(=O)O[C@H]1C(=O)[C@@]2(C)[C@H]([C@H](OC(=O)c3ccco3)[C@]3(O)C[C@H](OC(=O)[C@H](O)[C@@H](NC(=O)c4ccccc4)c4ccccc4)C(C)=C1C3(C)C)[C@]1(OC(C)=O)CO[C@@H]1C[C@@H]2O [NSC 673187]
ABCA3
  Correlation: −0.3896

## CC(C)(C)NNc1c([N+](=O)[O-])cnn(-c2ccccc2)c1=O [NSC 641820]
ABCC3
  Correlation: −0.3991

## O=C1c2cccc(NCCNCCO)c2C(=O)c2cccc(NCCNCCO)c21 [NSC 363997]
[1]; MTT assay with 2 μM PSC 833
  Effect of PSC 833 on the resistance of KB-V1 cells: reverses the resistance
[1]; MTT assay, 72 hrs
  Resistance of KB-V1 cells in comparison with the parental line: resistant
